# Tests used:
# human M A1AT = target: T1, human M A1AT (Homo sapiens, UniProt P01009); assay: A1AT cell secretion assay using HEK-M cells (ELISA); type: cell-based; details: 10 μM, 48 h
# T1 construct: expressed in transfected cells; host or cells: HEK-M cells (HEK-EBNA with M A1AT plasmid)
# Description: HEK-M cells, a human embryonic kidney cell line stably transfected with M A1AT, were plated into 96 well plates (3.0×10^5 cells/ml with 200 μl of media/well) overnight at 37° C. in a humidified atmosphere containing 5% CO2. Following incubation cells were washed with 200 μl serum-free media three times and media was replaced with serum-free media containing either vehicle, 10 μM suberanilohydroxamic acid (SAHA), (S)-1-((2-(trifluoromethyl)phenyl)sulfonyl)piperidine-3-carboxylic acid (at 10 μM) or (R)-1-((2-(trifluoromethyl)phenyl)sulfonyl)piperidine-3-carboxylic acid (at 10 μM) in replicates of six for 48 h in a 37° C. incubator in a final volume of 200 μl. At the end of the incubation step the supernatants were removed from the wells, centrifuged at 1000×g at 4° C. for 10 min and were assayed for human A1AT levels by ELISA (Human Serpin A1/α1 antitrypsin duo set ELISA, R& D Systems, DY1268) per manufacturer's instructions.
# Briefly, a 96 well plate was coated with human A1AT capture antibody overnight at room temperature (1:180 dilution from stock, 100 μl final volume/well). The capture antibody was then removed and wells washed three times with 300 μl wash buffer (0.05% Tween in PBS) and then 200 μl reagent diluent (25% Tween 20 in PBS) was incubated in each well for 1 h at room temperature. Diluted samples, standards (125, 250, 500, 1000, 2000, 4000 and 8000 pg/ml A1AT) or blanks were then added to each well in duplicate and the plates were covered with a plate sealer and left at room temperature for 2 h. […] After which, 50 μl stop solution (2M H2SO4) was added and optical density (OD) of each well was read at 450 nm with 570 nm blank subtracted from each well using a microplate reader. A 4 parameter logistic curve was constructed using GraphPad Prism 7 and A1AT concentrations were determined in each sample by interpolation from a standard curve and multiplying by the appropriate dilution factor.
# (§1) The amount of human A1AT secreted from transfected HEK-EBNA cells into the media was measured by ELISA. […]
# [1] = Mouse hepatocyte stability; type: in vitro ADME; details: male, C57BL6, cryopreserved hepatocytes in suspension, 37° C.; for hepatocyte CLint: read-out: intrinsic clearance (CLint) in mouse hepatocytes
# Description: The intrinsic clearance (CLint) and half-life of (S)-1-((2-(trifluoromethyl)phenyl)sulfonyl)piperidine-3-carboxylic acid and (R)-1-((2-(trifluoromethyl)phenyl)sulfonyl)piperidine-3-carboxylic acid were measured in a hepatocyte suspension of cryopreserved male C57BL6 mouse hepatocytes or a mixed hepatocyte suspension of cryopreserved human hepatocytes. Briefly, the compounds were incubated with hepatocyte suspensions at 37° C. over a time course and the remaining compound at each time point was assessed by mass spectrometry (UPLC-MS/MS). CLint in mouse hepatocytes was <3 μl/min/10^6 cells and in human hepatocytes was <3 μl/min/10^6 cells for both compounds.
# [2] = Plasma protein binding by rapid equilibrium dialysis, mouse plasma; type: in vitro ADME; details: 37° C.
# Description: (§2) The extent to which (S)-1-((2-(trifluoromethyl)phenyl)sulfonyl)piperidine-3-carboxylic acid and (R)-1-((2-(trifluoromethyl)phenyl)sulfonyl)piperidine-3-carboxylic acid bound to plasma proteins such as albumin and alpha-1 acid glycoprotein within human or mouse blood was determined by rapid equilibrium dialysis. Compounds were incubated at 5 μM for 4 hours at 37° C. Plasma protein binding in mouse plasma was 78.1% and in human plasma was 91.5% for (S)-1-((2-(trifluoromethyl)phenyl)sulfonyl)piperidine-3-carboxylic acid. Plasma protein binding in mouse plasma was 83.8% and in human plasma was 90.5% for (R)-1-((2-(trifluoromethyl)phenyl)sulfonyl)piperidine-3-carboxylic acid.
# [3] = Plasma protein binding by rapid equilibrium dialysis, human plasma; type: in vitro ADME; details: 37° C.
# Description: as §2
# human Z A1AT = human Z A1AT (Homo sapiens, UniProt P01009, E366K); assay: A1AT cell secretion assay using HEK-Z cells (ELISA); type: cell-based; parameters: expressed in transfected cells; host or cells: HEK-Z cells (HEK-EBNA with Z A1AT plasmid); details: HEK-Z cells, 10, 33, 100 and 333 nM, 48 h
# Description: HEK-Z cells, a human embryonic kidney cell line stably transfected with the human Z A1AT gene, were plated into 96 well plates (3.0×10^5 cells/ml with 200 μl of media/well) overnight at 37° C. in a humidified atmosphere containing 5% CO2. Following incubation cells were washed with 200 μl serum-free media three times and media was replaced with treatments in quadruplicate using serum-free media containing vehicle, 10 μM suberanilohydroxamic acid (SAHA), (S)-1-((2-(trifluoromethyl)phenyl)sulfonyl)piperidine-3-carboxylic acid or (R)-1-((2-(trifluoromethyl)phenyl)sulfonyl)piperidine-3-carboxylic acid (at concentrations of 10, 33, 100 and 333 nM) for 48 h in a 37° C. incubator in a final volume of 200 μl. […]
# Briefly, a 96 well plate was coated with human A1AT capture antibody overnight at room temperature (1:180 dilution from stock, 100 μl final volume/well). […] After which, 50 μl stop solution (2M H2SO4) was added and optical density (OD) of each well was read at 450 nm with 570 nm blank subtracted from each well using a microplate reader. A 4 parameter logistic curve was constructed using GraphPad Prism 7 and A1AT concentrations were determined in each sample by interpolation from a standard curve and multiplying by the appropriate dilution factor.
# as §1
# human Z A1AT, sequence (P01009 25-418 E366K): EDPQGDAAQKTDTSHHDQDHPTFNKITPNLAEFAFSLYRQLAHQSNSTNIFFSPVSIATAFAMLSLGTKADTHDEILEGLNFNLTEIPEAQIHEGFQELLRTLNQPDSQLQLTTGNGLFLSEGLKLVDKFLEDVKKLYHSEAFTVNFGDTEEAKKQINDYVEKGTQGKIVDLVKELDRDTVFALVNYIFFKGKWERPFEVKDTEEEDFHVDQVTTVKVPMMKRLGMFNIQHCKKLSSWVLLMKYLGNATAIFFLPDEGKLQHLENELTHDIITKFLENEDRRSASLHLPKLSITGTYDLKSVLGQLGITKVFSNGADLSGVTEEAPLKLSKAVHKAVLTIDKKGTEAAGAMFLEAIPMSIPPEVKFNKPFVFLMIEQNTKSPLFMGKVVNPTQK
# T1 sequence (P01009 25-418): as the sequence (P01009 25-418 E366K) above, with K342E counted along it
SMILES,secretion of human M A1AT into cell supernatant (human M A1AT),half-life [1] [h],hepatocyte CLint [1] [µL/min/1e6 cells],"fraction unbound at 4 h, 5 μM [2]","fraction unbound at 4 h, 5 μM [3]",secretion of human Z A1AT into cell supernatant (human Z A1AT)
O=C(O)[C@H]1CCCN(S(=O)(=O)c2ccccc2C(F)(F)F)C1 [(S)-1-((2-(Trifluoromethyl)phenyl)sulfonyl)piperidine-3-carboxylic acid],does not stimulate secretion of human M A1AT,> 7.67,< 3,0.219,0.085,stimulates secretion of human Z A1AT in a dose dependent manner
O=C(O)[C@@H]1CCCN(S(=O)(=O)c2ccccc2C(F)(F)F)C1 [(R)-1-((2-(Trifluoromethyl)phenyl)sulfonyl)piperidine-3-carboxylic acid],does not stimulate secretion of human M A1AT,> 7.67,< 3,0.162,0.095,stimulates secretion of human Z A1AT in a dose dependent manner
